Key:
[1] = system: canker sores (aphthous ulcers); settings: topical application, reported in literature; cited from earlier work
[2] = system: canker sores (aphthous ulcers); experiment: Inventor's trials of oral patches with licorice root extract or amoxicillin on canker sores; format: in vivo, human
Procedure: For medication to be placed in the patch, any of the above-mentioned antimicrobials, or similar antimicrobials, may be used. […] A preferred quantity of licorice extract in each patch that lasts 1 to 6 hours is 20 to 95 milligrams.
In the testing, conventional amoxicillin powder for preparation of oral suspension was used, which includes sugars and other excipients. The sugars act as a binder to the sponge of the oral patch. The oral suspension is massaged into the patch and dried. Preferably, the amoxicillin powder is mixed into a stronger than normal liquid form before being added to the patch.

| Compound | healing of canker sores [1] | further results |
| --- | --- | --- |
| CC1(C)S[C@@H]2[C@H](NC(=O)[C@H](N)c3ccc(O)cc3)C(=O)N2[C@H]1C(=O)O [amoxicillin] | shown effective | effectiveness on canker sores ([2]; amoxicillin powder for oral suspension on conventional patches): works quite well; typical duration of each canker sore ([2]; in a patch applied for half of the hours, day and night, typically 10-14 days without treatment): ~2 days; results of treatment of canker sores ([2]; patch keeping medication on or near the sore about half of the hours in a day over 2 days): nearly always effective; results of treatment of canker sores ([2]; troche, gel, paste or liquid applied six times per day for 2 days): nearly always ineffective |
| NC(N)=O.OO [carbamide peroxide] | reported to speed healing of canker sores |  |
| N=C(NCCCCCCNC(=N)NC(=N)Nc1ccc(Cl)cc1)NC(=N)Nc1ccc(Cl)cc1.O=C(O)[C@H](O)[C@@H](O)[C@H](O)[C@H](O)CO.O=C(O)[C@H](O)[C@@H](O)[C@H](O)[C@H](O)CO [chlorhexidine gluconate] | reported to speed healing of canker sores |  |
| CN(C)CCOC(c1ccccc1)c1ccccc1 [diphenhydramine] | reported to speed healing of canker sores |  |
| OO [hydrogen peroxide] | reported to speed healing of canker sores |  |
| penicillin | shown to speed healing of canker sores |  |
